This is an account of results in patent US9204640B2, “2-acyloxy-pyrrolin-4-ones” (BAYER INTELLECTUAL PROPERTY GMBH, priority 2011, dated 2015).

Common to all, as to assay type: in vivo
One assay has as its system Echinocloa crus-galli. Put plainly: Herbicidal post-emergence action, ECHCG. The settings on record: 20 g/ha. In short, it runs like this:
(§1)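 Weeds sown in sandy loam, grown in greenhouse 2–3 weeks and treated post-emergence at one-leaf stage (or BBCH 10–13, 5–10 cm) with WP/EC formulations sprayed at various dosages (600–800 l/ha water, 0.1–0.2% wetting agent). Visual rating after about 3 weeks as % activity versus untreated (100% = dead).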

For a further assay, the system named is Alopecurus myosuroides. Put plainly: Herbicidal post-emergence action, ALOMY. As to conditions: 20 g/ha. In short, it runs like this: as §1
A further assay concerns Myzus persicae. Put plainly: Myzus test (MYZUPE spray treatment). As to conditions: application rate 500 g/ha, after 5 days, Chinese cabbage leaf discs. In short, it runs like this:
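Chinese cabbage leaf discs carrying all stages of green peach aphid sprayed with compound diluted in emulsifier-containing water to the desired concentration. Mortality scored as % after 5 days, where 100% means all aphids dead and 0% none.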

Another assay deals with Digitaria sanguinalis. Put plainly: Herbicidal post-emergence action, DIGSA. The settings on record: 20 g/ha. In short, it runs like this: as §1

Turning to `CCOC(=O)OC1=C(c2c(C)cc(I)cc2CC)C(=O)C2(CCC(OC)CC2)N1` (mixture of isomers) [I-b-2], the “% Activity ECHCG” value with Echinocloa crus-galli worked out at 70%. For the same compound, the “% Activity ALOMY” value in the assay with Alopecurus myosuroides was 90%. The “effect in % (aphids killed)” value with Myzus persicae amounted to 100%. In addition, the “% Activity DIGSA” value in the assay with Digitaria sanguinalis stood at 90%.
